In patent publication US8871767B2, “2-arylimidazo[1,2-B]pyridazine, 2-phenylimidazo[1,2-A]pyridine, and 2-phenylimidazo[1,2-A]pyrazine derivatives” (Hengrui (USA) Ltd., priority 2010, dated 2014):
Like-named read-outs stand apart in the source and are kept apart here.

Legend:
[1] = system: Hedgehog pathway activation on 10T1/2/Smo#3 cells (C3H10T1/2 cells transfected with human Smoothened receptor); test: Hedgehog pathway activation on 10T1/2/Smo#3 cells measured by ALP activity; type: cell-based; conditions: Mus musculus, C3H 10T1/2, 10T1/2/Smo#3 cells
Experimental: Hedgehog conditioned media was obtained by transfecting 293H cells with the full length gene encoding human Sonic Hedgehog (hShh) inserted into the pCMV6 expression vector, which contains a neomycin selectable marker and expresses the protein of interest with a C-terminal FLAG affinity tag. After selection in G418 containing media, conditioned media from Hedgehog expressing clones were tested for the ability to activate the hedgehog-responsive GLi-luciferase reporter in the Shh Light II cell line obtained by license from John Hopkins University (Taipale J, et al. Effects of oncogenic mutations in Smoothened and Patched can be reversed by cyclopamine. Nature 406: 1005-1009, 2000).
C3H10T1/2 cells were transfected with a pCMV expression vector containing the full length gene sequence encoding the human Smoothened receptor. Pooled cells, designated 10T1/2/Smo#3, growing in G418 selection media responded to activation by 10-20% conditioned hShh media with an approximate 5-10 fold increase in alkaline phosphaste (ALP) activity over untransfected parent C3H10T1/2 cells as measured by the conversion of the free acid of 4-methylumbelliferyl phosphate to a fluorescent product.
A test compound library was screened against hShh and 500 nM SAG (a direct agonist of the Smoothened receptor) activated 10T1/2/Smo#3 cells and Shh Light II reporter cells for the ability to block Hedgehog pathway activation. Concurrently, cell viability was measured by utilizing Celltiter-Blue® (Promega, Madison Wis.) viability assay. Active compounds were defined as those that inhibited Hedgehog signaling by greater than 50% with no concurrent loss in cell viability.
Their inhibitory activity against Hedgehog pathway activation on 10T1/2/Smo#3 cells as measured by ALP activity and Shh Light II reporter cells as measured by luciferase activity is shown in Table 1 below. In Table 1, +++ stands for an IC50 value that is less than 0.3 μM, ++ between 0.3 and 3 μM, + between 3 and 30 μM.
Additional data for compounds of the invention is shown below in Table 2. Their inhibitory activities against Hedgehog pathway activation are shown as IC50 values in μM on 10T1/2/Smo#3 cells as measured by ALP activity, or on Shh Light II reporter cells as measured by luciferase activity (hShh activation).

[2] = system: Hedgehog pathway activation (GLi-luciferase reporter) in Shh Light II reporter cells; test: Hedgehog pathway activation on Shh Light II reporter cells measured by luciferase activity; type: cell-based
Outline: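 Shh Light II reporter cells carrying a hedgehog-responsive GLi-luciferase reporter were stimulated either with 500 nM SAG, a direct Smoothened agonist, or with conditioned media containing human Sonic Hedgehog (hShh). Test compounds were evaluated for blocking this pathway activation, quantified by luciferase activity. Cell viability was monitored in parallel with the Celltiter-Blue® assay.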

[3] = measured by ALP activity, read-out: ALP (IC50, inhibition of Hedgehog pathway activation)
[4] = Mus musculus, Shh Light II, hShh activation, read-out: Shh (IC50, inhibition of Hedgehog pathway activation)
[5] = hShh activation, ALP activity, read-out: 10T1/2/Smo#3 ALP activity (hShh Activation)
[6] = Mus musculus, Shh Light II, SAG activation (500 nM SAG), read-out: Shh Light II luciferase activity (SAG activation)
[7] = Mus musculus, Shh Light II, hShh activation, read-out: Shh Light II luciferase activity (hShh activation)

SMILES | IC50 [1, 3] [nM] | IC50 [2, 4] [nM] | IC50 [1, 5] [nM] | IC50 [2, 6] [nM] | IC50 [2, 7] [nM] | IC50 ([2]; hShh activation, read-out: Shh (IC50, inhibition of Hedgehog pathway activation)) [nM]
COCCN(CCOC)c1ccc2nc(-c3ccc(C(F)(F)F)c(NC(=O)C(C)(C)C)c3)cn2n1 [Example 380, N-(5-(6-(bis(2-methoxyethyl)amino)imidazo[1,2-b]pyridazin-2-yl)-2-(trifluoromethyl)phenyl)pivalamide] | 383 | 273 | – | – | – | –
CN1CCC(Oc2ccc3nc(-c4ccc(C(F)(F)F)c(NC(=O)C(C)(C)C)c4)cn3n2)CC1 [Example 305, N-(5-(6-(1-methylpiperidin-4-yloxy)imidazo[1,2-b]pyridazin-2-yl)-2-(trifluoromethyl)phenyl)pivalamide] | 3500 | 1890 | – | – | – | –
CCOc1ccc2nc(-c3ccc(C(F)(F)F)c(NC(=O)C4CC4)c3)cn2n1 [Example 186, N-(5-(6-ethoxyimidazo[1,2-b]pyridazin-2-yl)-2-(trifluoromethyl)phenyl)cyclopropanecarboxamide] | 8380 | > 10000 | – | – | – | –
COc1ccc2nc(-c3cc(NC(=O)C(C)(C)C)c(C)cc3C)cn2n1 [Example 106, N-(5-(6-methoxyimidazo[1,2-b]pyridazin-2-yl)-2,4-dimethylphenyl)pivalamide] | 2500 | 774 | 300 to 3000 | 300 to 3000 | 300 to 3000 | –
CC(C)(C)C(=O)Nc1cc(-c2cn3nc(N4CCC(O)CC4)ccc3n2)ccc1C1CC1 [Example 273, N-(2-cyclopropyl-5-(6-(4-hydroxypiperidin-1-yl)imidazo[1,2-b]pyridazin-2-yl)phenyl)pivalamide] | 442 | – | 300 to 3000 | 3000 to 30000 | 3000 to 30000 | –
CN(C)C1CCN(c2ccc3nc(-c4ccc(C(F)(F)F)c(NC(=O)C(C)(C)C)c4)cn3n2)C1 (stereo not shown) [Example 350, N-(5-(6-(3-(dimethylamino)pyrrolidin-1-yl)imidazo[1,2-b]pyridazin-2-yl)-2-(trifluoromethyl)phenyl)pivalamide] | 28 | 65 | – | – | – | –
Cc1ccc(-c2cn3nc(-c4ccc(-c5ccc(Cl)nc5)nc4)ccc3n2)cc1NC(=O)C(C)(C)C [Example 401, N-(5-(6-(6′-chloro-2,3′-bipyridin-5-yl)imidazo[1,2-b]pyridazin-2-yl)-2-methylphenyl)pivalamide] | 234 | 400 | – | – | – | –
Cc1ccc(-c2cn3nc(-c4ccnc(F)c4)ccc3n2)cc1NC(=O)C(C)(C)C [Example 365, N-(5-(6-(2-fluoropyridin-4-yl)imidazo[1,2-b]pyridazin-2-yl)-2-methylphenyl)pivalamide] | 360 | 124 | – | – | – | –
FC(F)(F)c1ccc(-c2cn3nc(Cl)ccc3n2)cc1Br [Example 203, 2-(3-bromo-4-(trifluoromethyl)phenyl)-6-chloroimidazo[1,2-b]pyridazine] | 9450 | > 10000 | – | – | – | –
COc1ccc2nc(-c3ccc(Cl)c(NC(=O)C(C)(C)C(F)(F)F)c3)cn2n1 [Example 119, N-(2-chloro-5-(6-methoxyimidazo[1,2-b]pyridazin-2-yl)phenyl)-3,3,3-trifluoro-2,2-dimethylpropanamide] | 4540 | 5650 | 3000 to 30000 | 3000 to 30000 | 3000 to 30000 | –
Cc1c(-c2cccnc2F)nn2cc(-c3ccc(C(F)(F)F)c(NC(=O)C(C)(C)C)c3)nc2c1C [Example 199, N-(5-(6-(2-fluoropyridin-3-yl)-7,8-dimethylimidazo[1,2-b]pyridazin-2-yl)-2-(trifluoromethyl)phenyl)pivalamide] | 111 | 337 | – | – | – | –
Cc1ccc2nc(-c3ccc(C(F)(F)F)c(NC(=O)C(C)(C)C)c3)cn2n1 [Example 142, N-(5-(6-methylimidazo[1,2-b]pyridazin-2-yl)-2-(trifluoromethyl)phenyl)pivalamide] | 365 | 1410 | – | – | – | –
CCOc1ccc2nc(-c3ccc(C(F)(F)F)c(S(=O)(=O)NCc4ccc(F)cc4)c3)cn2n1 [Example 213, 5-(6-ethoxyimidazo[1,2-b]pyridazin-2-yl)-N-(4-fluorobenzyl)-2-(trifluoromethyl)benzenesulfonamide] | 3860 | > 10000 | – | – | – | –
CC(C)(C)C(=O)Nc1cc(-c2cn3nc(-c4cccc(C(F)(F)F)c4)ccc3n2)ccc1C(F)(F)F [Example 223, N-(2-(trifluoromethyl)-5-(6-(3-(trifluoromethyl)phenyl)imidazo[1,2-b]pyridazin-2-yl)phenyl)pivalamide] | 289 | 97 | – | – | – | –
Cc1ccc(-c2cn3nc(-c4cc(Cl)ccc4F)ccc3n2)cc1NC(=O)C(C)(C)C [Example 262, N-(5-(6-(5-chloro-2-fluorophenyl)imidazo[1,2-b]pyridazin-2-yl)-2-methylphenyl)pivalamide] | 103 | 342 | – | – | – | –
CC(CC(=O)Nc1cc(-c2cn3nc(-c4cccnc4C(F)(F)F)ccc3n2)c(F)cc1Cl)C(F)(F)F (stereo not shown) [Example 661, N-(2-chloro-4-fluoro-5-(6-(2-(trifluoromethyl)pyridin-3-yl)imidazo[1,2-b]pyridazin-2-yl)phenyl)-4,4,4-trifluoro-3-methylbutanamide] | 15 | 31 | – | – | – | –
CC(C)(C)C(=O)Nc1cc(-c2cn3nc(-c4ccccc4OC(F)(F)F)ccc3n2)ccc1C(F)(F)F [Example 240, N-(5-(6-(2-(trifluoromethoxy)phenyl)imidazo[1,2-b]pyridazin-2-yl)-2-(trifluoromethyl)phenyl)pivalamide] | 70 | 326 | – | – | – | –
CC(C)(C)C(=O)Nc1cc(-c2cn3nc(OCCO)ccc3n2)ccc1C(F)(F)F [Example 377, N-(5-(6-(2-hydroxyethoxy)imidazo[1,2-b]pyridazin-2-yl)-2-(trifluoromethyl)phenyl)pivalamide] | 704 | 657 | – | – | – | –
CCCC(C)(C)C(=O)Nc1cc(-c2cn3nc(-c4cccnc4C(F)(F)F)ccc3n2)c(F)cc1Cl [Example 662, N-(2-chloro-4-fluoro-5-(6-(2-(trifluoromethyl)pyridin-3-yl)imidazo[1,2-b]pyridazin-2-yl)phenyl)-2,2-dimethylpentanamide] | 161 | 39 | < 300 | < 300 | < 300 | –
CC(C)(C)C(=O)Nc1cc(-c2cn3nc(N4CCC(O)C4)ccc3n2)ccc1C(F)(F)F (stereo not shown) [Example 337, N-(5-(6-(3-hydroxypyrrolidin-1-yl)imidazo[1,2-b]pyridazin-2-yl)-2-(trifluoromethyl)phenyl)pivalamide] | 194 | – | – | – | – | 308
Cc1c(-c2cccc(NC(=O)C3CCCCC3)c2)nc2ncccn12 [Example 92, N-(3-(3-methylimidazo[1,2-a]pyrimidin-2-yl)phenyl)cyclohexanecarboxamide] | – | – | 3000 to 30000 | 3000 to 30000 | 3000 to 30000 | –
COc1ccc2nc(-c3ccc(C(F)(F)F)c(NC(=O)C(C)(C)C)c3)cn2n1 [Example 125, N-(5-(6-methoxyimidazo[1,2-b]pyridazin-2-yl)-2-(trifluoromethyl)phenyl)pivalamide] | 1250 | 435 | – | – | – | –
Cc1cccc(-c2ccc3nc(-c4ccc(C(F)(F)F)c(NC(=O)C(C)(C)C)c4)cn3n2)n1 [Example 149, N-(5-(6-(6-methylpyridin-2-yl)imidazo[1,2-b]pyridazin-2-yl)-2-(trifluoromethyl)phenyl)pivalamide] | 1750 | 1020 | 300 to 3000 | 300 to 3000 | 300 to 3000 | –
